Experimental data reported in US9863955B2, “AMPK activator screening method, and AMPK activator” (KYORIN PHARMACEUTICAL CO., LTD., priority 2012, dated 2018).
One block for each compound: values may come before it.

How the values were obtained:
human PHB1 = experiment: Real-time PCR of HepG2 cells transfected with siRNA: PHB1; assay type: cell-based; conditions: 72 hours after transfection (FIG. 1)
Source text: (§1) Human hepatoma cell line HepG2 cells were transfected with siRNA (Stealth RNAi, Invitrogen) against human PHB1 or human PHB2 using Lipofectamine RNAiMAX (Invitrogen).
(§2) Seventy-two hours after the transfection, RNA was extracted from siRNA transfected cells using RNeasy Mini Kit (Qiagen). The thus obtained RNA was reverse transcribed into a cDNA using High Capacity cDNA Reverse Transcription Kit (Applied Biosystems). The resultant cDNA was subjected to real-time PCR by TaqMan Gene Expression Assays (Applied Biosystems, PHB1: Hs_00855044_gl, PHB2: Hs_00200720_ml) using 7500 Fast Real-Time PCR system (Applied Biosystems), and thus, the influence of the knockdown of PHB1 or PHB2 on the amount of gene expression was detected.

human PHB2 = experiment: Real-time PCR of HepG2 cells transfected with siRNA: PHB2; assay type: cell-based; conditions: 72 hours after transfection (FIG. 1)
Source text: as §1, §2

PHB2 = experiment: Western blotting of HepG2 cells cultured with compound A: PHB2; assay type: cell-based, human; conditions: various final concentrations, 3 hours culture (FIG. 8)
Method: (§3) Compound A was added to a HepG2 cell culture system to various final concentrations, and after culturing the resultant for 3 hours, the cells were lysed in a lysis buffer to obtain a cell extract. The thus obtained cell extract was used for performing SDS-PAGE so as to separate proteins contained in the extract in accordance with their sizes, and the resultant was transferred to a PVDF membrane to detect PHB1, PHB2, AMPKα and phosphorylated AMPKα by Western blotting.

AMPKα = experiment: Western blotting of HepG2 cells cultured with compound A: AMPKα; assay type: cell-based, human; conditions: various final concentrations, 3 hours culture (FIG. 8)
Method: as §3

ACC = experiment: Western blotting of HepG2 cells cultured with compound A: ACC; assay type: cell-based, human; conditions: various final concentrations, 3 hours culture (FIG. 8)
[1] = biological target: T1, interaction between PHB1 and AMPK (Homo sapiens, UniProt P35232); experiment: GST pull down assay of GST-PHB1 protein and AMPK in the presence of compound A; assay type: binding; conditions: compound A final concentration 10 μM, 3 hours at 4° C., Western blotting (FIG. 7)
T1 construct: purchased Abnova Corp. (GST-PHB1); Calbiochem (AMPK)
T1 sequence (P35232 1-272): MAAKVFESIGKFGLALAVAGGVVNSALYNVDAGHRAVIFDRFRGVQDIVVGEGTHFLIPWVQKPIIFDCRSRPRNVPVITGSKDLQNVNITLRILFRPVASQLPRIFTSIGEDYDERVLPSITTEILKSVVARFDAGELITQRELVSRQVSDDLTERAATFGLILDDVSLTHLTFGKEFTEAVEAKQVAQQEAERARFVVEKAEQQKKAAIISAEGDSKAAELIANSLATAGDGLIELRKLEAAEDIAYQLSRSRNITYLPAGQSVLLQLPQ
Method: Specifically, Glutathione Sepharose 4 Fast Flow carrier (GE Healthcare) was bound to each of commercially available GST protein, a GST fusion PHB1 protein (hereinafter also referred to as GST-PHB1 protein) (Abnova Corp.) and a GST fusion PHB2 protein (hereinafter also referred to as the GST-PHB2 protein) (Abnova Corp.) to obtain GST carrier-protein complexes. Each of the GST carrier-protein complexes and AMPK (Calbiochem) were incubated in a NET buffer (0.5% NP-40, 50 mM Tris-HCl pH 7.5, 50 mM sodium chloride, and 5 mM EDTA) for 3 hours at 4° C. for binding. After washing the resultant with a NET buffer, a sample buffer (50 mM Tris-HCl pH 6.8, 2% SDS, 10% glycerin, 1% β-mercaptoethanol, 12.5 mM EDTA, and 0.02% bromophenol blue) was added thereto to prepare a sample. The thus obtained sample was separated by SDS-PAGE, the resultant was transferred to a PVDF membrane and subjected to Western blotting using anti-AMPKα and anti-GST antibodies, so as to detect whether or not AMPK was bound to GST protein, GST-PHB1 protein or GST-PHB2 protein bound to Gluthathione Sepharose to be pulled down.
GST-PHB1 protein (500 ng) was bound to Glutathione Sepharose 4 Fast Flow (10 μL) to obtain a GST carrier-protein complex. […]

PHB1 = experiment: Western blotting of HepG2 cells cultured with compound A: PHB1; assay type: cell-based, human; conditions: various final concentrations, 3 hours culture (FIG. 8)
Method: as §3

Compound: siPHB1: siRNA (Stealth RNAi, Invitrogen) against human PHB1, SEQ ID NO: 1 and 2 (chain 1 UUGGCAAUCAGCUCAGCUGCCUUGG; chain 2 CCAAGGCAGCUGAGCUGAUUGCCAA; Stealth RNAi (Invitrogen), modifications not given here)
amount of transcription of PHB1 (human PHB1): specifically depressed

Compound: siPHB2: siRNA (Stealth RNAi, Invitrogen) against human PHB2, SEQ ID NO: 3 and 4 (chain 1 UACGAUUCUGUGAUGUGGCGAUCGU; chain 2 ACGAUCGCCACAUCACAGAAUCGUA; Stealth RNAi (Invitrogen), modifications not given here)
amount of transcription of PHB2 (human PHB2): specifically depressed

AMPKα pulled down by GST-PHB1 protein [1]: remarkably decreased
Compound: CCCCN1C(=O)CN(Cc2ccc(OC)c(C(=O)NCc3ccc(Oc4ccc(F)cc4)cc3)c2)C1=O [compound A, 5(2,4-dioxo-3-butylimidazolidin-1-yl)methyl-2-methoxy-N-[4-(4-fluorophenoxy)phenylmethyl]benzamide]
amount of PHB2 (PHB2): does not remarkably affect
amount of AMPKα (AMPKα): does not remarkably affect
level of phosphorylated AMPKα (AMPKα): increased by compound A in a concentration-dependent manner
amount of ACC (ACC): does not remarkably affect
level of phosphorylated ACC (ACC): increased by compound A in a concentration-dependent manner
amount of PHB1 (PHB1): does not remarkably affect
